The values that follow come from ChEMBL document CHEMBL1151309, “Quanolirones I and II, two new human cytomegalovirus protease inhibitors produced by Streptomyces sp. WC76535” (J Nat Prod, 1998).

A short description of assay [1]: Inhibition of GST-fused HCMV protease expressed in Escherichia coli by scintillation counting. Set-up: species or system Human betaherpesvirus 5.
In assay [2] the test system is M109. Put plainly: Cytotoxicity against mouse M109 cells by XTT assay. The class given is functional, cell-based. For orientation: Tetrazolium dyes change colour on reduction, which living cells bring about.

Regarding `Cc1cc(O)c2cc3c(c(O)c2c1)C(=O)c1ccc([C@H]2C[C@@H](O[C@@H]4CC[C@@H](O)[C@@H](C)O4)[C@H](O)[C@@H](C)O2)c(O)c1C3=O` [QUANOLIRONE II], the IC50 in assay [1] amounted to 35 µM; in assay [2], 89 µM.
As for `Cc1cc(O)c2cc3c(c(O)c2c1)C(=O)c1ccc([C@@H]2C[C@H](O[C@H]4CC[C@H](O[C@H]5C[C@@H](O[C@H]6CC[C@H](O)[C@H](C)O6)[C@H](O)[C@H](C)O5)[C@H](C)O4)[C@@H](O)[C@@H](C)O2)c(O)c1C3=O`, the IC50 in assay [1] is 52 µM; in assay [2] it was 12 µM.
Take `Cc1cc(O)c2cc3c(c(O)c2c1)C(=O)c1ccc([C@H]2C[C@@H](O[C@H]4CC[C@H](O[C@H]5C[C@@H](O)[C@H](O)[C@@H](C)O5)[C@H](C)O4)[C@H](O)[C@@H](C)O2)c(O)c1C3=O` [QUANOLIRONE I]: the IC50 in assay [1] and in assay [2] was 14 µM in each case.

What is called IC50 is the concentration at which inhibition is half-maximal. Read a high IC50 as weaker potency in that assay.
